Test results published in paper PMC5666381, “Rapid Assessment of the Toxicity of Fungal Compounds Using Luminescent Vibrio qinghaiensis sp. Q67” (Toxins, 2017).
≈ marks a conversion by molar mass, not a printed value.

Experiments:
[1] = test system: Photobacterium phosphoreum; settings: Photobacterium phosphoreum bioluminescence; cited from earlier work
[2] = test system: Vibrio qinghaiensis sp. Q67; assay: microbe, parasite or virus in culture; format: cell-based; settings: for IC50: Vibrio qinghaiensis, 0.25 h, read-out: IC50, luminescence inhibition of standard mycotoxins; for IC50 / IC50, luminescence inhibition of standard mycotoxins: V. qinghaiensis sp. Q67, 15 min exposure, 22 °C, 0.8% NaCl
kidney cells = settings: cited from earlier work; for IC50: read-out: IC50, cytotoxic effects, ref Bouslimi et al. (2008) [29]; for IC50, cytotoxic effects: value in brackets after the µM value, ref Bouslimi et al. (2008) [29]
mice = settings: ref Kouadio et al. (2013) [14]; cited from earlier work
[3] = test system: human promyelocytic leukemia cell line HL60; settings: HL60 cells; ref Nagashima and Nakagawa (2014) [13]; cited from earlier work
V. fischeri [4] = settings: ref Menz et al. (2013) [25]; cited from earlier work
Aliivibrio fischeri = settings: cited from earlier work
V. fischeri [5] = settings: cited from earlier work

CC1=C2C(=CO[C@H](C)[C@H]2C)C(O)=C(C(=O)O)C1=O [Citrinin]
EC50 for toxic effects [1]: 20.05 µg/mL
IC50 [2]: 12.23 ± 0.1 µg/mL (≈ 48.9 µM)
IC50 (kidney cells): 220 µM
IC50, cytotoxic effects (kidney cells): 55.06 µg/mL (≈ 220 µM)

CC1=C[C@H]2O[C@@H]3[C@H](O)C[C@](C)([C@@]2(CO)[C@H](O)C1=O)[C@]31CO1 [Deoxynivalenol]
IC50, luminescence inhibition of standard mycotoxins [2]: 30.74 ± 0.33 µg/mL
no-observed-adverse-effect level (NOAEL) (mice): lower than 45 µg kg^−1 day^−1
IC50, cell proliferation [3]: 0.36 µg/mL (≈ 1.21 µM)

CCCC[C@@H](C)[C@@H](OC(=O)C[C@@H](CC(=O)O)C(=O)O)[C@H](C[C@@H](C)C[C@H](O)CCCC[C@@H](O)C[C@H](O)[C@H](C)N)OC(=O)C[C@@H](CC(=O)O)C(=O)O [Fumonisin B1]
IC50, luminescence inhibition of standard mycotoxins [2]: 14.88 ± 0.14 µg/mL

C[C@@H]1Cc2c(Cl)cc(C(=O)N[C@@H](Cc3ccccc3)C(=O)O)c(O)c2C(=O)O1 [Ochratoxin A]
EC50 for toxic effects [1]: 16.88 µg/mL
IC50 [2]: 11.02 ± 0.1 µg/mL (≈ 27.3 µM)
IC50 (kidney cells): 50 µM
IC50, cytotoxic effects (kidney cells): 20.15 µg/mL (≈ 49.9 µM)

O=C1C=C2C(=CCOC2O)O1 (stereo not shown) [Patulin]
IC50 [2]: 13.3 ± 0.14 µg/mL (≈ 86.4 µM)

C[C@H]1CCCC(=O)CCC/C=C/c2cc(O)cc(O)c2C(=O)O1 [Zearalenone]
EC50 for toxic effects [1]: 13.51 µg/mL
IC50 [2]: 9.71 ± 0.17 µg/mL (≈ 30.5 µM)

O.O.O.O.O.O.O.O=S(=O)([O-])[O-].[Zn+2] [ZnSO4, Zinc sulfate heptahydrate]
IC50, luminescence inhibition by ZnSO4 ([2]; V. qinghaiensis Q67, reference substrate, 15 min): 7640 ± 420 µg/mL
IC50, inhibition of relative luminescence (V. fischeri [4]): 26000 ± 3300 µg/mL

aflatoxin B1
EC50 (Aliivibrio fischeri): 23.3 µg/mL
EC50 (V. fischeri [5]): 14.4 µg/mL
